From US11958868B2, “Methods of using metal complexes to promote wound healing” (University of Macau, priority 2022, dated 2024)

Experiments:
[1] = system: HIF-1α activation of the HRE-driven reporter; experiment: Dual luciferase reporter assay (HRE-driven luciferase activity); format: cell-based, Human; conditions: HEK293 cells; for HRE-driven luciferase activity (HIF-1α transcriptional activity), first round of screening: complexes 10 μM, complexes 1-14, ranking in words; for HRE-driven luciferase activity, second round of screening: complexes 1a-1n, ranking and comparison in words
Protocol: A library of cyclometalated Ir(III)/Rh(III) metal complexes 1-14 (as racemates) with diverse structures were selected for initial screening, in order to identify favorable substructures for the design of the next round of complexes (FIG. 1a). In cells, HIF-1α moves into the nucleus and binds to the hypoxia-response element (HRE) in the promoters of transactivated genes. In this study, the dual luciferase reporter assay (DLR) was performed to monitor the variations of HRE-driven luciferase activity induced by the complexes (FIG. 1f). Human embryonic kidney HEK293 cells were treated with complexes (10 μM) for 8 h, and the HRE-driven luciferase activity of the cell lysates was determined. Complexes that inhibit the interaction between VHL and HIF-1α would be expected to increase the level of HRE-driven luciferase activity in the cell lysates.
HEK293 cells were seeded in six well plates 24 h before transfection. HRE-luciferase plasmid (4 μg) and pRL-TK plasmid (4 μg) and TurboFect reagent (6 μL) were mixed together in serum-free DMEM medium and the resulting solution was incubated for 20 min at room temperature. The mixture was the added dropwise to the HEK293 cells in the wells. The cells were incubated for 32 h at 37° C. in a CO2 incubator before use.
The inhibition of HIF-1α activity was assayed by a reporter assay using a dual luciferase reporter assay system (Promega, Madison, WI, USA). Transiently transfected cells were treated with complexes or P1 for 8 h before measurement. Luciferase activity was integrated over a 10 second period and measured using a spectrophotometer (Spectra-max M5, Molecular Devices, USA). The results were standardization with the activity of Renilla luciferase. All data are expressed as means±SD.

[2] = target: VHL (Homo sapiens, UniProt P40337); experiment: Binding affinity to VHL compared with VH298; conditions: VH298 vs complex 1a
Sequence of VHL (P40337 whole entry): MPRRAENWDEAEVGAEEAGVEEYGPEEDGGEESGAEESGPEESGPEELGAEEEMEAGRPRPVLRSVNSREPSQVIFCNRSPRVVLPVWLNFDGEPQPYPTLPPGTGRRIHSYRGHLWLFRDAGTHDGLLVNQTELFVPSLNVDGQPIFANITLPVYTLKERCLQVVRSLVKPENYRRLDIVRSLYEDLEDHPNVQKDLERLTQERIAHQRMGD
Sequence of VHL (Q15370 whole entry partner): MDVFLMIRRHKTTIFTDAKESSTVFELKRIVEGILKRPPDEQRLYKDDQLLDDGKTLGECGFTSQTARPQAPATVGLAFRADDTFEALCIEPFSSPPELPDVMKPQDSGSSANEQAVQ
Sequence of VHL (Q15369 whole entry partner): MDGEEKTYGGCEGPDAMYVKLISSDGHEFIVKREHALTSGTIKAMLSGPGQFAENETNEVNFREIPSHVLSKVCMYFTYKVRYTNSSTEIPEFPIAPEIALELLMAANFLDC

[3] = system: HIF-1α levels in A498 (VHL-null) cells; experiment: HIF-1α accumulation in VHL-null A498 cells; format: cell-based; conditions: 1a 3 μM, VH298 100 μM, 2 h
Protocol: FIG. 3 depicts the effect of complex 1a on HIF-1α target gene products in cellulo. (A) Effect of complex 1a on specific proteins (GLUT1, VEGF, and EPO) mediated by HIF-1α in HEK293 cells. HEK293 cells were treated with 1a for 2 h. Cell lysis were collected and analyzed by the Western blotting. (B) Complex 1a has no effect on HIF-1α accumulation in a VHL null cancer cell line. A498 (VHL-null), or HEK293 cells were treated with 1% DMSO, 1a (3 μM), VH298 (100 μM), and FG-4592 (100 μM) for 2 h before lysis. (C) Effect of complex 1a on EPO, GLUT1, and VEGF levels in HEK293 cells with or without HIF-1α knockdown. Left: The expression levels of EPO, GLUT1, and VEGF in HEK293 cells with or without knockdown HIF-1α in the presence or absence of 1a. Right: Densitometry analysis of EPO, GLUT1, and VEGF levels on the Western blot. HIF-1α siRNA [sense, 5′-[…]-3′ (SEQ ID NO:1), antisense, 5′-[…]-3′ (SEQ ID NO:2)]. Negative control (NC) siRNA [sense, 5′-[…]-3′ (SEQ ID NO:3), antisense, 5′-[…]-3′ (SEQ ID NO:4)]. Data are expressed as means±SD (n=3 independent experiments), P values were calculated using a two-sided t-test. #P<0.05, P<0.01 HIF-1α siRNA vs. NC siRNA, *P<0.05, **P<0.01 1a vs. vehicle/DMSO group, respectively. […]

[4] = target: T1, human recombinant VHL:ElonginB:ElonginC (VBC) complex (Homo sapiens, UniProt P40337); experiment: Fluorescence-based protein thermal shift assay (FTS) of VBC; format: binding; conditions: 100 μM
T1 construct: made in house
T1 sequence (P40337 whole entry): as the sequence (P40337 whole entry) above
T1 sequence (Q15370 whole entry partner): as the sequence (Q15370 whole entry partner) above
T1 sequence (Q15369 whole entry partner): as the sequence (Q15369 whole entry partner) above
Protocol: HEK293 cells were treated with vehicle DMSO (1% for 2 h), 1a (0.3, 1, 3, 6 and 9 μM for 2 h), VH298 (100 μM for 2 h), MG132 (20 μM for 3 h), or FG-4592 (100 μM for 2 h) before lysis. Cell lysates were collected and incubated with VHL antibody overnight at 4° C. The proteins were immunoprecipitated using agarose beads. The levels of hydroxy-HIF-1α co-precipitated with VHL were detected using a hydroxy-HIF-1α antibody, and then visualized using ECL Western Blotting Detection Reagent (GE Healthcare). (B) Cellular thermal shift assays to monitor cellular target engagement of VHL and HIF-1α. HEK293 cell lysates were treated with 1a (3 μM) at room temperature for 30 min and then heated at different temperature ranging from 48° C. to 68° C. for 5 min. The protein samples were collected and detected by Western blotting using either VHL or PHD2 antibodies. (C) Fluorescence-based protein thermal shift assay of VBC in the presence or absence of VH298 (100 μM) and complex 1a (100 μM). […] Data are expressed as means±SD (n=3 independent experiments for figures a and b, samples for figures c and e), P values were calculated using a two-sided t-test. *P<0.05, **P<0.01 vs. DMSO group.
After incubating HEK293 cell lysates with complex 1a followed by heating to set temperatures, VHL and PHD2 levels in the soluble fraction were quantitated by Western blotting.

Row | SMILES | HRE-driven luciferase activity, second round of screening ([1]; 8 h) | other results
1 | COC(=O)c1cc[n+]2c(c1)-c1cc(C(=O)OC)cc[n+]1[Rh-3]213([c]2ccccc2-c2ccc4ccccc4[n+]21)[c]1ccccc1-c1ccc2ccccc2[n+]13.F[P-](F)(F)(F)(F)F [compound 7] | – | HRE-driven luciferase activity (HIF-1α transcriptional activity), first round of screening ([1]; 8 h): low activity
2 | COc1ccnc2c1ccc1c(OC)ccnc12 [dmeophen, 4,7-dimethoxy-1,10-phenanthroline] | – | Effect of isolated ligands on HRE-driven luciferase activity [1]: neither brpy nor dmeophen had any significant effect
3 | COc1cc[n+]2c3c1ccc1c(OC)cc[n+](c13)[Ir-3]213([c]2cc(Br)ccc2-c2cccc[n+]21)[c]1cc(Br)ccc1-c1cccc[n+]13.F[P-](F)(F)(F)(F)F [1c] | drastically reduced activity | –
4 | COc1cc[n+]2c(c1)-c1cc(OC)cc[n+]1[Ir-3]213([c]2cc(Br)ccc2-c2cccc[n+]21)[c]1cc(Br)ccc1-c1cccc[n+]13.F[P-](F)(F)(F)(F)F [1h] | led to a decrease in activity | –
5 | F[P-](F)(F)(F)(F)F.O=[N+]([O-])c1cc2ccc[n+]3c2c2c1ccc[n+]2[Ir-3]312([c]3cc(F)cc(F)c3-c3cccc[n+]31)[c]1cc(F)cc(F)c1-c1cccc[n+]12 [compound 9] | – | HRE-driven luciferase activity (HIF-1α transcriptional activity), first round of screening ([1]; 8 h): low activity
6 | Brc1ccc2[c](c1)[Rh-3]13([c]4cc(Br)ccc4-c4cccc[n+]41)([n+]1ccccc1-2)[n+]1cccc2ccc4ccc[n+]3c4c21.F[P-](F)(F)(F)(F)F [1i] | drastically reduced activity | –
7 | CCc1ccc2[c](c1)[Rh-3]13([c]4cc(CC)ccc4-c4ccc5ccccc5[n+]41)([n+]1ccc(OC)cc1-c1cc(OC)cc[n+]13)[n+]1c-2ccc2ccccc21.F[P-](F)(F)(F)(F)F [compound 6] | – | HRE-driven luciferase activity (HIF-1α transcriptional activity), first round of screening ([1]; 8 h): low activity
8 | Cc1ncsc1-c1ccc(CNC(=O)[C@@H]2C[C@@H](O)CN2C(=O)[C@@H](NC(=O)C2(C#N)CC2)C(C)(C)C)cc1 [VH298, reference compound] | – | Binding affinity to VHL, stronger than complex 1a [2]: ca. 100 fold; HIF-1α levels in A498 cells [3]: no increase in HIF-1α levels; Shift of the melting curve of purified VBC (FTS) [4]: ca. 5.0 °C
9 | Brc1ccc2[c](c1)[Rh-3]13([c]4cc(Br)ccc4-c4cccc[n+]41)([n+]1ccccc1-2)[n+]1ccc(Br)c2ccc4c(Br)cc[n+]3c4c21.F[P-](F)(F)(F)(F)F [1k] | drastically reduced activity | –
10 | Brc1ccc2[c](c1)[Ir-3]13([c]4cc(Br)ccc4-c4cccc[n+]41)([n+]1ccccc1-2)[n+]1cccc2ccc4ccc[n+]3c4c21.F[P-](F)(F)(F)(F)F [1j] | drastically reduced activity | –
11 | COc1cc[n+]2c3c1ccc1c(OC)cc[n+](c13)[Ir-3]213([c]2ccccc2-c2c(C)ccc[n+]21)[c]1ccccc1-c1c(C)ccc[n+]13.F[P-](F)(F)(F)(F)F [1e] | substantially weakens the activity of the complex | –
12 | Brc1ccc2[c](c1)[Rh-3]13([c]4cc(Br)ccc4-c4cccc[n+]41)([n+]1ccccc1-2)[n+]1ccc(-c2ccccc2)c2ccc4c(-c5ccccc5)cc[n+]3c4c21.F[P-](F)(F)(F)(F)F [1m] | drastically reduced activity | –
13 | Brc1ccc(-c2ccccn2)cc1 [brpy, 2-(4-bromophenyl)pyridine] | – | Effect of isolated ligands on HRE-driven luciferase activity [1]: neither brpy nor dmeophen had any significant effect
14 | Brc1ccc2[c](c1)[Ir-3]13([c]4cc(Br)ccc4-c4cccc[n+]41)([n+]1ccccc1-2)[n+]1ccc(-c2ccccc2)c2ccc4c(-c5ccccc5)cc[n+]3c4c21.F[P-](F)(F)(F)(F)F [1n] | drastically reduced activity | –
15 | COc1cc[n+]2c3c1ccc1c(OC)cc[n+](c13)[Ir-3]213([c]2cc(C)ccc2-c2cccc[n+]21)[c]1cc(C)ccc1-c1cccc[n+]13.F[P-](F)(F)(F)(F)F [1g] | second-most potent compound | –
16 | CCc1ccc2[c](c1)[Rh-3]13([c]4cc(CC)ccc4-c4cccc[n+]41)([n+]1ccccc1-2)[n+]1ccc(-c2ccccc2)c2ccc4c(-c5ccccc5)cc[n+]3c4c21.F[P-](F)(F)(F)(F)F [compound 5] | – | HRE-driven luciferase activity (HIF-1α transcriptional activity), first round of screening ([1]; 8 h): next most potent candidate
17 | Brc1ccc2[c](c1)[Ir-3]13([c]4cc(Br)ccc4-c4cccc[n+]41)([n+]1ccccc1-2)[n+]1ccc(Br)c2ccc4c(Br)cc[n+]3c4c21.F[P-](F)(F)(F)(F)F [1l] | drastically reduced activity | –
18 | COc1cc[n+]2c3c1ccc1c(OC)cc[n+](c13)[Rh-3]213([c]2ccccc2-c2cccc[n+]21)[c]1ccccc1-c1cccc[n+]13.F[P-](F)(F)(F)(F)F [1b] | substantially more active than the Rh(III) congener 1b | –
19 | COc1cc[n+]2c3c1ccc1c(OC)cc[n+](c13)[Rh-3]213([c]2cc(Br)ccc2-c2cccc[n+]21)[c]1cc(Br)ccc1-c1cccc[n+]13.F[P-](F)(F)(F)(F)F [compound 1] | – | HRE-driven luciferase activity compared to positive control P1 (and parent complex 1) ([1]; 8 h): slightly higher activity compared to the positive control compound, P1; HRE-driven luciferase activity (HIF-1α transcriptional activity), first round of screening ([1]; 8 h): highest activation of HIF-1α transcriptional activity
